Source: US20080138326A1, “Method for cancer treatment, carcinogenesis suppression or mitigation of adverse reactions of anticancer agents” (Kaneka Corporation, priority 2006, published 2008)
Marks after values point to notes of the source that are not given here.

Columns and labels:
[1] = tested on: Human breast cancer-derived cells (MCF-7); experiment: Suppressive effect on cell activation in cancer-derived cells (intracellular ATP content); format: cell-based; details: 24 hours; for intracellular ATP content compared with control group: 80 μg/ml, Tween 80 control = 100%, P<0.0011
Method: The reduced coenzyme Q10 obtained in Production Example 1 and the oxidized coenzyme Q10 used as a raw material in Production Example 1 were respectively dissolved in undiluted Tween 80 (MP Biomedicals) to give test samples.
Human breast cancer-derived cells (MCF-7, supplied by ATCC) were cultured in a Dulbecco's modified MEM medium (GIBCO) supplemented with 200 U of penicillin, […] streptomycin, and 10% fetal bovine serum at 37° C. in the presence of 5% CO2. After becoming confluent, the cells were sown to a 96-well microplate (IWAKI) at 2.0×10^4 cells per well. Twenty-four hours after the sowing, the medium was replaced with a Dulbecco's modified MEM medium containing 0.5% fetal bovine serum, and the above test samples were added to said medium such that the concentrations of Tween 80 were to be […], 0.025 and 0.05% (the concentrations of the reduced coenzyme Q10 or oxidized coenzyme Q10 in the medium were 20, 40 and 80 μg/ml). Tween 80 alone was added to the Dulbecco's modified MEM medium containing 0.5% fetal bovine serum such that the concentrations were to be the same, and the resulting solution was used as a control. Twenty-four hours later, the medium was removed, and the microplate was washed with PBS (GIBCO), after which intracellular ATP contents were determined using an ATP assay kit (Perkin-Elmer) and compared. The results are shown in FIG. 2, where the determined intracellular ATP amount for the control sample is given a value of 100% and the determined intracellular ATP amounts for the test samples were compared to this value.

[2] = tested on: Normal human skin fibroblasts (NHDF); experiment: Promotive effect on cell activation in skin fibroblasts (intracellular ATP content); format: cell-based; details: 48 hours; for ATP level: HCO-60 solvent; for intracellular ATP levels compared with solvent control: 0.12 and 0.98 μg/ml
Method: The reduced coenzyme Q10 obtained in Production Example 1 and the oxidized coenzyme Q10 used as a raw material in Production Example 1 were respectively dissolved in undiluted HCO-60 (polyoxyethylene hydrogenated castor oil, Nihon Surfactant Kogyo K.K.) to give test samples.
Normal human skin fibroblasts (NHDF, Kurabo Industries) were cultured in a Medium 106S basal medium (Kurabo Industries) supplemented with 2% fetal bovine serum, 10 μg/ml heparin, 1 μg/ml hydrocortisone, 10 ng/ml human recombinant […], and human recombinant basic fibroblast growth factor 3 ng/ml, at 37° C. in the presence of 5% CO2. After becoming confluent, the cells were sown to a 96-well microplate at 2.0×10^3 cells per well. The medium used at the time of cell sowing was a Medium 106S (Kurabo Industries, Ltd.) supplemented with 2% fetal bovine serum, 10 μg/ml heparin, and 1 μg/ml hydrocortisone. After cultivation for 24 hours, the test samples were replaced with the same medium added with the oxidized or reduced coenzyme Q10 such that the concentrations were to be 0.12 and 0.98 μg/ml, and the cells were further cultured for 48 hours. The same amount of HCO-60 alone was added to the medium, and the resulting solution was used as a control. The medium was then removed, and the microplate was washed with PBS (GIBCO), after which intracellular ATP contents were determined using an ATP assay kit (Perkin-Elmer) and compared.
For statistical analysis, a parametric multiple comparison (Tukey type) was performed. In comparison with the solvent-only control group, * indicates a significance level of less than 5%, and ** indicates a significance level of less than 1%. In comparison with oxidized coenzyme Q10, † indicates a significance level of less than 5%.

rats = details: 1.2 g/kg/day for 52 consecutive weeks; cited from earlier work
[3] = tested on: Normal human skin fibroblasts (NHDF); experiment: Suppressive effect on LDL-induced cell proliferation (BrdU incorporation ELISA); format: cell-based; details: LDL containing reduced coenzyme Q10 (2.44-78.2 μg/ml) vs LDL control sample = 100%; 48 hours
Method: Human LDL (BIODESIGN) and Medium 106S (Kurabo Industries, Ltd.), a basal medium for normal human skin fibroblasts, were mixed to prepare a LDL-containing medium. The reduced coenzyme Q10 obtained in Production Example 1 was dissolved into the LDL-containing medium at 50° C. with sonication. This was followed by membrane filtration, and the filtrate obtained was used as the test sample stock solution.
Likewise, the LDL-containing medium as is (without adding reduced coenzyme Q10) was subjected to membrane filtration and the filtrate obtained was used as the control sample stock solution. The LDL concentrations of the test sample stock solution and the control sample stock solution were same.
The concentration of reduced coenzyme Q10 in the test sample stock solution was measured by high performance liquid chromatography (column: length 25 cm, diameter 4.6 mm, YMC-PACK ODS-A (YMC), mobile phase: methanol-hexane (85:15, v/v), detection wavelength: 290 nm, flow rate: 1.0 mL/min). As a result, the weight percent of reduced coenzyme Q10 based on the total weight of coenzyme Q10 in the test sample stock solution was calculated to be 84.1% by weight, and the concentration of reduced coenzyme Q10 in the test sample stock solution was calculated to be 234.68 μg/ml. […]

[4] = tested on: aberrant crypt foci (ACF) in the rat large intestine; experiment: Rat colorectal carcinogenesis model (azoxymethane-initiated aberrant crypt foci); format: in vivo; details: four weeks; for Number of ACFs, 1 crypt, percent of control group / Number of ACFs, 2 crypts, percent of control group / Number of ACFs, 3 crypts, percent of control group / Number of ACFs, 4 crypts or more, percent of control group / Total ACF number/large intestine specimen, percent of control group / Total ACs number/large intestine specimen, percent of control group: control group = 100%; for Mean ACs number/focus / Number of ACFs formed in the large intestine, 1 crypt / Number of ACFs formed in the large intestine, 2 crypts / Number of ACFs formed in the large intestine, 3 crypts / Number of ACFs formed in the large intestine, 4 crypts or more / Total ACF number/large intestine specimen / Total ACs number/large intestine specimen: mean ± standard deviation
Method: To examine the effect of reduced coenzyme Q10 on carcinogenesis, a test was performed using a rat colorectal carcinogenesis model. This test method represents a rodent model of two-stage carcinogenesis, targeting the rat large intestine. Because carcinogenesis research using this test method is widely conducted for screening for cancer prophylactic agents and other purposes, the test results are sufficiently reliable.
Twenty-seven male F344 rats at 6 weeks of age were divided into three groups (9 animals/group) by computer-based randomized block design in a way such that no statistically significant difference would be produced in mean body weight. For initiation treatment for colorectal carcinogenesis, each rat was given azoxymethane (AOM) by subcutaneous administration at a dose of 15 mg/kg body weight once weekly for two weeks.
Starting on the day before administration of AOM, reduced coenzyme Q10 in solution in vehicle (olive oil) at a concentration of 20 or 50 mg/ml was given by gavage at doses of 0 (control group, group 1), 20, and 50 mg/kg (groups 2 and 3) on consecutive days for four weeks. The control group (group 1) received only the vehicle for administering reduced coenzyme Q10.
Four weeks after initial administration of reduced coenzyme Q10, all rats were autopsied, and the large intestine (colon and rectum, excluding the cecum) was extirpated. The large intestine with its ends ligated was fixed with injected 10% neutrally buffered formalin solution, after which the large intestine was incised and applied over filter paper flatly. Subsequently, the large intestine was post-fixed with 10% neutrally buffered formalin solution. After fixation, the large intestine was stained with 0.2% Methylene Blue solution in physiological saline for about 10 minutes, and the mucosal surface of the large intestine was examined using a stereomicroscope, whereby aberrant crypt foci (ACF), a form of precancerous lesion in colorectal cancer, were counted.
ACF was counted and classified by number of crypts present therein. Data were obtained as total ACF number per large intestine (colon and rectum) specimen, total crypt number per large intestine specimen, and mean crypt number per ACF (Table 2).
Furthermore, total ACF number per large intestine specimen was calculated according to the number of crypts in each ACF (Table 3).
For statistical analysis, Bartlett's homogeneity test was performed to compare group 1 and groups 2 and 3. […] In the case of non-homogenous dispersion, Dunnett's multiple comparison test based on a non-parametric approach (joint ranking method) was performed.

SMILES: COC1=C(OC)C(=O)C(C/C=C(\C)CC/C=C(\C)CC/C=C(\C)CC/C=C(\C)CC/C=C(\C)CC/C=C(\C)CC/C=C(\C)CC/C=C(\C)CC/C=C(\C)CCC=C(C)C)=C(C)C1=O [Oxidized coenzyme Q10, oxidized coenzyme Q10, reference compound]
- intracellular ATP content compared with control group [1]: decreased significantly
- ATP level ([2]; 0.12 μg/ml): 183.23 ± 62.70* nM
- ATP level ([2]; 0.98 μg/ml): 224.84 ± 43.55* nM
- intracellular ATP levels compared with solvent control [2]: significantly elevated
- toxic signs (rats): no toxic signs were observed

SMILES: COc1c(O)c(C)c(C/C=C(\C)CC/C=C(\C)CC/C=C(\C)CC/C=C(\C)CC/C=C(\C)CC/C=C(\C)CC/C=C(\C)CC/C=C(\C)CC/C=C(\C)CCC=C(C)C)c(O)c1OC [Reduced coenzyme Q10, reduced coenzyme Q10]
- elevation of cell division activity (BrdU incorporated in the nucleus) induced by LDL [3]: suppressed
- intracellular ATP content, reduced compared with oxidized coenzyme Q10 ([1]; 80 μg/ml each, P<0.05): significantly lower
- intracellular ATP content compared with control group [1]: decreased significantly
- ATP level ([2]; 0.12 μg/ml): 277.21 ± 46.02**† nM
- ATP level ([2]; 0.98 μg/ml): 267.24 ± 20.72** nM
- intracellular ATP levels compared with solvent control [2]: significantly elevated
- intracellular ATP levels, reduced compared with oxidized coenzyme Q10 [2]: significantly elevated
- Number of ACFs, 1 crypt, percent of control group ([4]; 20 mg/kg by gavage): (71)** %
- Number of ACFs, 2 crypts, percent of control group ([4]; 20 mg/kg by gavage): (79) %
- Number of ACFs, 3 crypts, percent of control group ([4]; 20 mg/kg by gavage): (100) %
- Number of ACFs, 4 crypts or more, percent of control group ([4]; 20 mg/kg by gavage): (97) %
- Total ACF number/large intestine specimen, percent of control group ([4]; 20 mg/kg by gavage): (80) %
- Total ACs number/large intestine specimen, percent of control group ([4]; 20 mg/kg by gavage): (84) %
- Mean ACs number/focus ([4]; 20 mg/kg by gavage): 1.77 ± 0.16
- Number of ACFs formed in the large intestine, 1 crypt ([4]; 20 mg/kg by gavage): 47 ± 12
- Number of ACFs formed in the large intestine, 2 crypts ([4]; 20 mg/kg by gavage): 39 ± 9
- Number of ACFs formed in the large intestine, 3 crypts ([4]; 20 mg/kg by gavage): 18 ± 12
- Number of ACFs formed in the large intestine, 4 crypts or more ([4]; 20 mg/kg by gavage): 7 ± 6
- Total ACF number/large intestine specimen ([4]; 20 mg/kg by gavage): 113 ± 32
- Total ACs number/large intestine specimen ([4]; 20 mg/kg by gavage): 214 ± 81
- Number of ACFs, 1 crypt, percent of control group ([4]; 50 mg/kg by gavage): (61)*** %
- Number of ACFs, 2 crypts, percent of control group ([4]; 50 mg/kg by gavage): (70)** %
- Number of ACFs, 3 crypts, percent of control group ([4]; 50 mg/kg by gavage): (80) %
- Number of ACFs, 4 crypts or more, percent of control group ([4]; 50 mg/kg by gavage): (78) %
- Total ACF number/large intestine specimen, percent of control group ([4]; 50 mg/kg by gavage): (74)* %
- Total ACs number/large intestine specimen, percent of control group ([4]; 50 mg/kg by gavage): (71)* %
- Mean ACs number/focus ([4]; 50 mg/kg by gavage): 1.76 ± 0.33
- Number of ACFs formed in the large intestine, 1 crypt ([4]; 50 mg/kg by gavage): 40 ± 10
- Number of ACFs formed in the large intestine, 2 crypts ([4]; 50 mg/kg by gavage): 35 ± 11
- Number of ACFs formed in the large intestine, 3 crypts ([4]; 50 mg/kg by gavage): 15 ± 7
- Number of ACFs formed in the large intestine, 4 crypts or more ([4]; 50 mg/kg by gavage): 6 ± 4
- Total ACF number/large intestine specimen ([4]; 50 mg/kg by gavage): 104 ± 26
- Total ACs number/large intestine specimen ([4]; 50 mg/kg by gavage): 181 ± 54
- gross condition, mortality, food consumption, and body weight during the treatment period ([4]; 20 and 50 mg/kg by gavage, male F344 rats): no changes associated with administration of the test substance were observed
- total ACF number and total crypt number per large intestine specimen compared with the control group ([4]; 20 and 50 mg/kg by gavage, statistically significant in the 50 mg/kg group): decreased
- total ACF number for 1-crypt ACF or 2-crypt ACF ([4]; 20 and 50 mg/kg by gavage, vs control group): decreased significantly
